This note sets out measurements from the NIST ThermoML archive (doi:10.1016/j.tca.2016.11.011).

For the data set the following is noted: DSC.

The structures appear in SMILES notation. Where “and” joins values, the source holds several entries; their conditions need not be identical. Equal values may be shown once. ± gives the expanded uncertainty stated by the source.

On to `COC(=O)C1=C(C)NC(C)=C(C(=O)OC)C1c1ccccc1[N+](=O)[O-]`, for which the Glass transition temperature was 44.5 ± 1 °C and 42.2 ± 1 °C. For `CC(=O)Nc1ccc(O)cc1` [N-acetyl-p-aminophenol], the Glass transition temperature is 24 ± 1 °C and 21.7 ± 1 °C.

In the case of `O[C@@H]1[C@@H](O)[C@@H]2OC[C@@H](O2)[C@H]1O` [1,6-anhydro-β-D-glucopyranose], the Glass transition temperature is -24.7 ± 1 °C and -26.5 ± 1 °C.
